From the supplement of paper PMC10307832

What was measured:
Test in all cases: relative viability (nuclei count vs DMSO), 5 days (fraction); higher = more cells survive
[1] = compound: Cc1ccc(C(=O)Nc2ccc(CN3CCN(C)CC3)c(C(F)(F)F)c2)cc1C#Cc1cnc2cccnn12 [Ponatinib] + CS(=O)(=O)CCNCc1ccc(-c2ccc3ncnc(Nc4ccc(OCc5cccc(F)c5)c(Cl)c4)c3c2)o1 [Lapatinib] (partner 2 µM)
Procedure, shortened: (§1)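 Lung cancer cell lines were seeded in 1536-well plates and dosed by pin tool the next day, with either a single drug or a fixed anchor-drug dose combined with five library-drug doses (not always all listed) spaced in √10 steps. Five days later, one step fixed the cells and stained their nuclei (final 0.05% Triton X-100, 1% formaldehyde, 1 ug/ml Hoechst), and nuclei were counted on 4× images. Relative viability is the nuclei count in treated wells divided by the count in vehicle wells, and each value is the median of duplicate plates.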

[2] = compound: Cc1ccc(Nc2nccc(N(C)c3ccc4c(C)n(C)nc4c3)n2)cc1S(N)(=O)=O [Pazopanib] + Cc1cc(Nc2cc(N3CCN(C)CC3)nc(Sc3ccc(NC(=O)C4CC4)cc3)n2)n[nH]1 [Tozasertib] (partner 0.1 µM)
Procedure, shortened: as §1

[3] = compound: Cc1ccc(Nc2nccc(N(C)c3ccc4c(C)n(C)nc4c3)n2)cc1S(N)(=O)=O [Pazopanib] + Nc1ncn([C@H]2C[C@H](O)[C@@H](CO)O2)c(=O)n1 [Decitabine] (partner 2 µM)
Procedure, shortened: as §1

[4] = compound: Cc1ccc(C(=O)Nc2ccc(CN3CCN(C)CC3)c(C(F)(F)F)c2)cc1C#Cc1cnc2cccnn12 [Ponatinib] + O=C(c1cc(Cc2n[nH]c(=O)c3ccccc23)ccc1F)N1CCN(C(=O)C2CC2)CC1 [Olaparib] (partner 8 µM)
Procedure, shortened: as §1

| Cell Line | relative viability ([1]; first compound 0.002 µM) | relative viability ([1]; first compound 0.006325 µM) | relative viability ([1]; first compound 0.06325 µM) | relative viability ([1]; first compound 0.2 µM) | relative viability ([2]; first compound 0.01 µM) | relative viability ([2]; first compound 0.03162 µM) | relative viability ([2]; first compound 0.1 µM) | relative viability ([2]; first compound 0.3162 µM) | relative viability ([2]; first compound 1 µM) | relative viability ([3]; first compound 0.01 µM) | relative viability ([3]; first compound 0.03162 µM) | relative viability ([3]; first compound 0.1 µM) | relative viability ([3]; first compound 0.3162 µM) | relative viability ([3]; first compound 1 µM) | relative viability ([4]; first compound 0.002 µM) | relative viability ([4]; first compound 0.006325 µM) | relative viability ([4]; first compound 0.06325 µM) | relative viability ([4]; first compound 0.2 µM) |
| --- | --- | --- | --- | --- | --- | --- | --- | --- | --- | --- | --- | --- | --- | --- | --- | --- | --- | --- |
| 201T | 1.04 | 1.03 | 1.09 | 1.02 | 0.961 | 1 | 0.961 | 0.908 | 0.926 | 0.831 | 0.886 | 0.866 | 0.879 | 0.838 | 0.833 | 0.853 | 0.878 | 0.806 |
| A549 | 0.946 | 1.03 | 1.05 | 0.88 | – | – | – | – | – | – | 0.276 | 0.281 | 0.273 | 0.332 | 0.299 | 0.384 | 0.394 | 0.384 |
| A-427 | 1.05 | 0.96 | 1.05 | 0.98 | 0.183 | 0.207 | 0.207 | 0.217 | 0.186 | 0.554 | 0.538 | 0.554 | 0.533 | 0.613 | 0.707 | 0.835 | 0.842 | 0.66 |
| ABC-1 | 1.1 | 1.17 | 1.2 | 0.864 | 0.182 | 0.174 | – | 0.151 | 0.19 | 1.01 | 1.12 | 1 | 1.31 | 0.807 | 0.893 | 0.776 | 0.776 | 0.693 |
| BEN | 0.503 | 0.509 | 0.721 | 0.628 | 0.481 | 0.463 | 0.582 | 0.516 | 0.482 | 0.579 | 0.791 | 0.726 | 0.831 | 0.782 | 1.06 | 1.18 | 1.13 | 0.92 |
| CAL-12T | 0.702 | 0.714 | 1 | 0.698 | 0.247 | 0.327 | 0.312 | 0.297 | 0.294 | – | – | – | – | – | 0.735 | 0.663 | 0.822 | 0.683 |
| COR-L23 | 0.79 | 0.931 | 0.914 | 0.781 | 0.236 | 0.173 | 0.202 | 0.214 | 0.152 | 0.457 | 0.43 | 0.442 | 0.459 | 0.49 | 0.277 | 0.349 | 0.335 | 0.303 |
| COR-L 105 | 0.385 | 0.369 | 0.374 | 0.347 | 0.341 | 0.345 | 0.356 | 0.334 | 0.382 | 0.746 | 0.576 | 0.737 | 0.677 | 0.719 | 0.711 | 0.709 | 0.723 | 0.747 |
| Calu-6 | 1 | 0.954 | 1.22 | 1.03 | – | – | – | – | – | – | – | – | – | – | 0.541 | 0.556 | 0.497 | 0.493 |
| ChaGo-K-1 | – | – | – | – | 0.21 | 0.221 | 0.241 | 0.257 | 0.255 | 0.541 | 0.482 | 0.516 | 0.528 | 0.535 | 0.438 | 0.486 | 0.41 | 0.436 |
| EBC-1 | 0.2 | 0.233 | 0.225 | 0.227 | – | – | – | – | – | – | – | – | – | – | 0.625 | 0.756 | 0.77 | 0.644 |
| EKVX | 0.222 | 0.217 | 0.349 | 0.234 | 0.355 | 0.383 | 0.435 | 0.422 | 0.448 | 0.374 | 0.303 | 0.324 | 0.356 | 0.472 | 0.956 | 0.897 | 0.971 | 0.767 |
| EMC-BAC-2 | 0.797 | 0.852 | 0.918 | 0.806 | – | 0.302 | 0.302 | 0.226 | 0.278 | – | 1.01 | 0.999 | 0.974 | 1.16 | 0.434 | 0.455 | 0.482 | 0.398 |
| EPLC-272H | 0.917 | 1.05 | 0.957 | 0.654 | – | 0.352 | 0.167 | 0.21 | 0.241 | – | 0.336 | 0.353 | 0.337 | 0.369 | 0.777 | 0.9 | 0.778 | 0.624 |
| H3255 | 0.222 | 0.268 | 0.263 | 0.21 | 0.489 | 0.629 | 0.986 | 0.656 | 0.734 | 0.42 | 0.618 | 0.602 | 0.718 | 0.668 | 0.573 | 0.534 | 0.602 | 0.554 |
| HARA | 0.88 | 0.887 | 0.406 | 0.378 | 0.09 | 0.119 | 0.603 | 0.0772 | 0.0838 | 0.484 | 0.615 | 0.6 | 0.543 | 0.602 | 0.757 | 0.825 | 0.777 | 0.874 |
| HCC-15 | 0.797 | 0.916 | 0.922 | 0.901 | 0.435 | 0.502 | 0.411 | 0.394 | 0.37 | 0.53 | 0.712 | 0.572 | 0.59 | 0.827 | 0.673 | 0.721 | 0.767 | 0.738 |
